Measured values: patent US8895520B2, “Method for treating a human patent suffering from Myeloid Neoplasias using 5-aminoimidazole-4-carboxamide” (Universite Nice Sophia Antipolis, priority 2011, dated 2014)

Columns and labels:
AZA-R SKM1 cells [1] = assay: Caspase 3 / caspase 9 activity assay in AZA-R SKM1 cells; type: cell-based, human
Protocol: (§1) FIG. 1 illustrates AZA-induced apoptosis in AZA-SKM1 cells as assessed by caspase 3 assay. In this figure, cells were incubated for different times with 1 μM Azacitidine. Caspase activities were determined in quadruplicates using 0.2 mM Ac-DEVD-AMC as substrate.
(§2) FIG. 2 illustrates AZA-induced apoptosis in AZA-SKM1 cells as assessed by caspase 9 assay. In this figure, cells were incubated for different times with 1 μM Azacitidine. Caspase activities were determined in quadruplicates using 0.2 mM Ac-LEHD-AMC as substrate.
(§3) In this experiment, cells were incubated for 24 h with 1 μM Azacitidine or 1 mM ACA. Cell extracts were then prepared and caspase activities were determined in quadruplicates using 0.2 mM Ac-DEVD-AMC as substrate.
(§4) For these caspase assays, 10^6 cells/mL were incubated for different times at 37° C. with 1 μM Azacitidine. After stimulation, cells were lysed for 30 min at 4° C. Cellular extracts were incubated in 96-well plates with either Ac-DEVD-AMC (caspase 3) or Ac-LEHD-AMC (caspase 9) as substrates. Each experiment was performed in quadruplicates and repeated at least three times.

[2] = tested on: high-risk Myelodysplasic syndrome (MDS) or acute myeloid leukemia (AML) patients; details: cited from earlier work
AZA-S SKM1 cells [3] = assay: XTT cell metabolism assay in AZA-S SKM1 cells; type: cell-based, human; details: for cell metabolism (XTT) / inhibitory effect on cell metabolism in presence of Z-VAD-fmk: 24 h; for inhibitory effect on cell metabolism in presence of Z-VAD-fmk: 50 μM Z-VAD-fmk
Protocol: (§5) FIGS. 6 and 7 illustrate respectively the efficiency of acadesine in SKM1-S and SKM1-R cells. In FIG. 6, AZA-S SKM1 cells were incubated for 24 h with increased doses of ACA (acadesine). In FIG. 7, AZA-R SKM1 cells were incubated for 24 h with increased doses of ACA. Cell metabolism was then assessed by using the XTT assay in both assays. Results represent the mean+/−SEM of three independent experiments made in quadruplicates.
FIGS. 10 and 11 illustrate the efficacy of acadesine in AZA-S and AZA-R cells. […] For this experiment, AZA-S SKM1 cells were incubated for 24 h with 1 μM Azacitidine or 1 mM Acadesine in either the presence or the absence of 50 μM Z-VAD-fmk. Cell metabolism was assessed using the XTT assay. Results represent the mean+/−SEM of three independent experiments achieved in quadruplicates. […] For this experiment, AZA-R SKM1 cells were incubated for 24 h with 1 μM Azacitidine or 1 mM Acadesine in either the presence or the absence of 50 μM Z-VAD-fmk. Cell metabolism was assessed using the XTT assay. Results represent the mean+/−SEM of three independent experiments achieved in quadruplicates.
For the cell metabolism assessment, 15×10^3 cells were incubated in a 96-well plate for different times with various concentrations of Azacitidine in a final volume of 100 μL. After 16, 24 or 48 h, 50 μL of XTT reagent was added to each well. The absorbance of the formazan product, reflecting cell metabolism, was measured at […]. Each assay was performed in quadruplicate.
The cell metabolism assessment was made in an identical manner as described in example 3.

AZA-R SKM1 cells [4] = assay: PARP cleavage by western blot in AZA-R SKM1 cells; type: cell-based, human; details: 1 μM Azacitidine, 16 h
Protocol: (§6) In this experiment, PARP cleavage was assessed by western-blot on cell extracts prepared from AZA-S and AZA-R cells incubated for 16 h with 1 μM Azacitidine. For the Western Blot analysis, cells were first stimulated by 1 μM Azacitidine for the indicated times, then cells were harvested and lysed in buffer containing 1% Triton X-100 and supplemented with protease and phosphatase inhibitors (Roche Diagnostics) as previously described. Lysates were pelleted, and 50 μg of protein were analyzed by SDS-PAGE.

AZA-S SKM1 cells [5] = assay: Autophagy western blot (LC3-I/LC3-II, P-S6) in AZA-S SKM1 cells; type: cell-based, human; details: 1 μM AZA
Protocol: (§7) FIG. 4 illustrates increased basal autophagy and decreased AZA-mediated autophagy in AZA-R cells. In this experiment, cells were incubated for increasing times with 1 μM AZA. LC3-I and LC3-II, S6 ribosomal protein (P-S6), and its phosphorylated form were visualized by western blot.
as §6, with “For” for “In this experiment, PARP cleavage was assessed by western-blot on cell extracts prepared from AZA-S and AZA-R cells incubated for 16 h with 1 μM Azacitidine. For”

AZA-S SKM1 cells [6] = assay: Caspase 3 / caspase 9 activity assay in AZA-S SKM1 cells; type: cell-based, human
Protocol: as §1, §2, §3, §4

AZA-S SKM1 cells [7] = assay: Cathepsin B activity assay in AZA-S SKM1 cells; type: cell-based, human; details: Azacitidine
Protocol: (§8) For this experiment cells were incubated for increasing times with 1 μM AZA. Cell extracts were prepared and Cathepsin B activity determined in quadruplicatesusing Z-RR-AMC as substrates. […] In this experiment cells were incubated for 24 h with 1 μM Azacitidine or 1 mM ACA. Cell extracts were prepared and Cathepsin B activity was determined in quadruplicates using Z-RR-AMC as substrate. For these Cathepsin B assays, 10^6 cells/mL were incubated for different times at 37° C. with 1 μM Azacitine. After stimulation, cells were lysed for 30 min at 4° C. Cellular extracts were incubated in 96-well plates with […] (Cathepsin B) as substrate. This experiment was performed in quadruplicates and repeated at least three times.

AZA-R SKM1 cells [8] = assay: Cathepsin B activity assay in AZA-R SKM1 cells; type: cell-based, human
Protocol: as §8

AZA-R SKM1 cells [9] = assay: Autophagy western blot (LC3-I/LC3-II, P-S6) in AZA-R SKM1 cells; type: cell-based, human; details: 1 μM AZA
Protocol: as §7
as §6, with “For” for “In this experiment, PARP cleavage was assessed by western-blot on cell extracts prepared from AZA-S and AZA-R cells incubated for 16 h with 1 μM Azacitidine. For”

[10] = tested on: bone marrow cells of 7 AZA-sensitive patients; assay: XTT cell metabolism assay on bone marrow cells of AZA-sensitive patients; type: cell-based, human; details: bone marrow cells of AZA-sensitive patients (n=7), 1 mM Acadesine
Protocol: For this experiment, bone marrow cells of 7 AZA-sensitive patients were treated with 1 μM Azacitidine or 1 mM Acadesine. Cell metabolism was assessed using the XTT assay. Results represent the mean+/−SEM of three independent experiments achieved in quadruplicates.
(§9) In the following examples, bone marrow samples were collected from 15 patients treated by Azacitidine. […] The diagnosis of MDS or AML was based on standard WHO criteria (Vardiman et al., Blood 2009). Patients were to receive Azacitidine at the FDA/EMEA approved schedule (75 mg/m^2/d, 7 d/4 weeks). Patients having received one or more than one cycle of Azacitidine and who had bone marrow evaluation after at least four cycles, or who died or progressed before completion of four cycles were considered evaluable (the last two groups were considered as treatment failures). Responses were scored according to IWG 2006 criteria for MDS and to Cheson et al. (JCO 2003) for AML.
(§10) Acadesine efficiency was next investigated on fifteen primary cell samples from MDS or AML patients treated or not by AZA. Samples from seven Azacitidine sensitive patients (FIG. 12) and eight samples from Azacitidine resistant patients were included in this experiment and analyzed by the XTT assay (FIG. 13). As previously described for AZA-R SKM1 cells, Acadesine was more efficient to kill cells from Azacitidine resistant patients.

[11] = tested on: bone marrow cells of 8 AZA-resistant patients; assay: XTT cell metabolism assay on bone marrow cells of AZA-resistant patients; type: cell-based, human; details: 1 mM Acadesine
Protocol: For this experiment, bone marrow cells of 8 AZA-resistant patients were treated with 1 μM Azacitidine or 1 mM Acadesine. Cell metabolism was assessed using the XTT assay. Results represent the mean+/−SEM of three independent experiments achieved in quadruplicates.
as §9, §10

[12] = tested on: AZA-resistant patient bone marrow cells; assay: LC3 I / LC3 II western blot on AZA-resistant patient bone marrow cells; type: cell-based, human; details: one Azacitidine resistant patient, 1 mM Acadesine, 24 h
Protocol: In this experiment LC3 I and LC3 II expression was assessed by Western-Blot on cell extracts prepared from AZA-resistant patient bone marrow cells incubated for 24 h with 1 mM Acadesine.
as §10

AZA-R SKM1 cells [13] = assay: cells; type: cell-based; details: Homo sapiens
Protocol: as §5
FIGS. 10 and 11 illustrate the efficacy of acadesine in AZA-S and AZA-R cells. […] For this experiment, AZA-S SKM1 cells were incubated for 24 h with 1 μM Azacitidine or 1 mM Acadesine in either the presence or the absence of 50 μM Z-VAD-fmk. Cell metabolism was assessed using the XTT assay. Results represent the mean+/−SEM of three independent experiments achieved in quadruplicates. […] For this experiment, AZA-R SKM1 cells were incubated for 24 h with 1 μM Azacitidine or 1 mM Acadesine in either the presence or the absence of 50 μM Z-VAD-fmk. Cell metabolism was assessed using the XTT assay. Results represent the mean+/−SEM of three independent experiments achieved in quadruplicates. […]
For the cell metabolism assessment, 15×10^3 cells were incubated in a 96-well plate for different times with various concentrations of Azacitidine in a final volume of 100 μL. […] The absorbance of the formazan product, reflecting cell metabolism, was measured at 490 nM. […]

## Nc1ncn([C@@H]2O[C@H](CO)[C@@H](O)[C@H]2O)c(=O)n1 [Azacitidine]
AZA-R SKM1 cells [1]; 1 μM Azacitidine
  caspase 3 activation (hydrolysis of Ac-DEVD-AMC): no caspase activities was induced
  caspase 9 activation (hydrolysis of LEHD-AMC): no caspase activities was induced
AZA-R SKM1 cells [1]; 1 μM Azacitidine, 24 h
  caspase 3 activity (Ac-DEVD-AMC): no increase
[2]
  proportion of patients refractory: approximately 40%
AZA-S SKM1 cells [3]; 1 μM Azacitidine
  cell metabolism (XTT): efficiently reduced cell metabolism
  inhibitory effect on cell metabolism in presence of Z-VAD-fmk: reverted by Z-VAD-fmk
AZA-R SKM1 cells [4]
  cleavage of PARP (western blot): no AZA-mediated cleavage of PARP was detected
AZA-S SKM1 cells [5]
  ribosomal protein S6 phosphorylation (index of mTOR inhibition): inhibition of ribosomal protein S6 phosphorylation
AZA-S SKM1 cells [5]; increasing times
  LC3-II accumulation (autophagy): time-dependent accumulation of LC3-II
AZA-S SKM1 cells [6]; 1 μM Azacitidine, 8-16 h
  caspase 3 activation (hydrolysis of Ac-DEVD-AMC): induced
  caspase 9 activation (hydrolysis of LEHD-AMC): induced
AZA-S SKM1 cells [6]; 1 μM Azacitidine, 24 h
  caspase 3 activity (Ac-DEVD-AMC): induced caspase 3 activity
AZA-S SKM1 cells [7]
  Cathepsin B activity: induces
AZA-R SKM1 cells [8]; 1 μM AZA, increasing times
  Cathepsin B activity: increased
AZA-R SKM1 cells [9]
  ribosomal protein S6 phosphorylation (index of mTOR inhibition): inhibition of ribosomal protein S6 phosphorylation
AZA-R SKM1 cells [9]; increasing times
  LC3-II accumulation (autophagy): not further stimulated

## NC(=O)c1ncn([C@@H]2O[C@H](CO)[C@@H](O)[C@H]2O)c1N [Acadesine, acadesine]
AZA-R SKM1 cells [1]; 1 mM ACA, 24 h
  apoptosis (caspase activity, Ac-DEVD-AMC): does not induce apoptosis
[10]
  cell metabolism (XTT): inhibits cell metabolism
[11]
  cell metabolism (XTT): strongly inhibits cell metabolism
AZA-S SKM1 cells [3]; 1 mM Acadesine
  cell metabolism (XTT): drastically inhibited cell metabolism
  inhibitory effect on cell metabolism in presence of Z-VAD-fmk: independently of caspases
AZA-S SKM1 cells [3]; Homo sapiens, SKM-1, 24 h, XTT assay, read-out: half-maximal inhibition of cell metabolism
  IC50: 250 µM
[12]
  induction of autophagy (conversion of LC3-I into LC3-II): induction of autophagy by Acadesine was confirmed
AZA-R SKM1 cells [13]; SKM-1, 24 h, read-out: reduction of cell viability
  cytotoxicity at 1000 µM: 60%
AZA-R SKM1 cells [13]; SKM-1, AZA-R SKM1 cells, 24 h, XTT assay, read-out: half-maximal inhibition of cell metabolism
  IC50: 250 µM
AZA-S SKM1 cells [6]; 1 mM ACA, 24 h
  apoptosis (caspase activity, Ac-DEVD-AMC): does not induce apoptosis
AZA-R SKM1 cells [8]; 1 mM ACA, 24 h
  Cathepsin B activity: increase of Cathepsin B activity
